Entries after “also recorded” stand apart in the source; their conditions may differ. Starred links: 1 amine or outer side, 2 acyl side, 3 side chain; linkers in the order of their positions; H or OH if unused. Non-standard residues stand in square brackets, D forms with d. No end group written: not given here. (CH2)6 = -(CH2)6- hydrocarbon linking residues between repeats, C(CCC[*:2])CC[*:1]
System: epithelial cell migration
Test: In vitro scratch assay, truncation and scrambled peptide series (FIG. 1; cell line not given)
Assay type: cell-based
Conditions: 80 μM; FIG. 1; vs untreated control
Procedure: Peptides were tested for efficacy in accelerating scratch closure rates. Negative controls included untreated and multiple scrambled peptide (SP) controls. All peptides were tested at 80 μM concentration. All experiments were performed in triplicate with three technical replicates for each experiment. Statistical significance was determined by one-way ANOYA with Dunnett's post-hoc test. *p<0.05; **p<0.01; ***p<0.001. Relative closure=(% closure of treated sample)/(% closure of Untreated control).
In Vitro Scratch Assay. HCE, HCLE, HELA and MCF-7 cells were cultured in a 24-well plate at 2.5×10^5 (cells/well) seeding density, and were grown to confluence on a 24-well plate. Subsequently, a straight-line scratch mark was made with a sterile P200 pipette tip. The cells were then washed twice with phosphate-buffered saline (PBS) to remove cellular debris. Wounded areas were then treated with the peptides provided in Table 5 at various concentrations in standard medium with reduced serum conditions (0.5% FBS in MEM medium (HCE), growth factor-free K-SFM media (HCLE), 1% FBS in DMEM medium (HeLa) and 0.5% FBS in RPMI 1640 medium (MCF-7)). Scratches were photographed microscopically at 4× magnification (Image Express Micro, Molecular Devices, San Jose, Calif.) every hour over the course of the experiment. The wound area at each time-point was measured using Image J software (Image J 1.47v, NIH, Thornwood, Bethesda, Md.). Relative wound closure was calculated by dividing the closure of the treated wound by that of the untreated wound. For all the experiments including truncated histatin-5, a final concentration of 80 μM was used. PD98059 (Calbiochem, San Diego, Calif.) at final concentration of 50 μM was used as a specific inhibitor of MEK. PD98059 was added to cell cultures at the same time as histatin peptides.
To identify the residues of Hst5 required for epithelial cell migration, serial truncation experiments were performed, progressively deleting residues in Hst5. […] All peptides were tested at 80 μM. […] Thus, the SHRGY (SEQ ID NO:2) sequence is necessary and sufficient to promote epithelial migration rates in in vitro scratch assays.

Which “scratch (wound) closure rates, relative closure” value (from here on “scratch … relative closure”) does the source give for DSHAKRHHGYKRKF [Hst5(1-14)] here?
Its value is “no significant increase in wound closure rates”.

How did the “scratch … relative closure” value turn out when DSHAKRHHGYKRKFHEKHH [Hst5(1-19)] was run?
The value was “no significant increase in wound closure rates”.

DSHAKRHHGYKRKFHEKHHSHR [Hst5(1-22)] was tested. Which “scratch … relative closure” value did it give?
The value was “no significant increase in wound closure rates”.

With DSHAKRHHGYKRKFHEKHHSHRG [Hst5(1-23)] as the molecule, how does the “scratch … relative closure” value read?
Its value is “no significant increase in wound closure rates”.

With “DSHAKRHIHGYKRKFHEKHHSH (DSHAKRHHGYKRKFHEKHHSH) [Hst5(1-21)]” as the molecule, how does the “scratch … relative closure” value read?
The value was “no significant increase in wound closure rates”.

With HSHKEGHHYKRFKRKHHADSHRGY [SP2] as the molecule, how does the “scratch … relative closure” value read?
The value was “significant increases in scratch closure rates”.

How did the “scratch … relative closure” value turn out when RHHGYKRKFHEKHHSHRGY [Hst5(5-24)] was run?
Its value is “significant increases in scratch closure rates”.

RYHGS [SP4] was tested. Which “scratch … relative closure” value did it give?
The value was “did not significantly increase wound closure rates”.

How did the “scratch … relative closure” value turn out when RYSGH [SP3] was run?
The value was “did not significantly increase wound closure rates”.

Which “scratch … relative closure” value does the source give for “SHRGY-(CH2)6-SHRGY-(CH2)6-SHRGY-(CH2)6-SHRGY (SHRGY[(CH2)6]SHRGY[(CH2)6]SHRGY[(CH2)6]SHRGY) [multimer of SHRGY composed of 4 repeating units]” here?
Its value is “significant increases in scratch closure rates”.

TNQQK [SP5] was tested. Which “scratch … relative closure” value did it give?
Its value is “no significant improvement in the wound closure rates”.

For “c-SHRGY: cyclized SHRGY peptide, prepared using a linker/spacer composed of 6-(Fmoc-amino)caproic acid, 6-(Fmoc-amino)hexanoic acid (cyclo(SHRGY); not fully specified (C-terminus))”, which “scratch … relative closure” value is on record?
Its value is “significant increases in scratch closure rates”.

Same assay, conditions: PD98059 50 μM added at the same time as Hst5

With `COc1cccc(-c2cc(=O)c3ccccc3o2)c1N` [PD98059] as the molecule, how does the “effect of MEK inhibitor co-treatment on Hst5-promoted wound closure” value read?
Its value is “eliminated the effects of Hst5 on promoting wound closure”.

Same assay, conditions: summary statement: immortalized human corneal epithelial cells, immortalized human corneal limbal epithelial cells, HeLa human cells, mouse corneal wounding models

How did the epithelial migration turn out when SHDGY [pentapeptide] was run?
The epithelial migration was “significantly enhance epithelial migration”.

System: corneal epithelial wound in C57BLl6J mice
Test: Murine corneal epithelial injury (wound healing) model
Assay type: in vivo
Conditions: applied topically to mice injured using a standardized wounding method; summary statement
Procedure: Wounded areas were treated with Hst5, SHRGY (SEQ ID NO:2) or SP1 peptides (n=7 for each group), each tested at 80 μM concentration. Wound areas at multiple time points were measured using Image J software. […] Statistical significance was determined by a two-way ANOVA with Bonferroni post-hoc test. **P<0.01, ***P<0.001. % Wound area=(Wound area at time X/Wound area at time 0)×100.
Wound Healing Assay. Corneal wounding experiments in mice were conducted in compliance with the Association for Research in Vision and Ophthalmology (ARVO) Statement for the Use of Animals in Ophthalmic and Vision Research. The protocol was approved by the Animal Care & Use Committee of the University of Illinois at Chicago. Twelve-to-nineteen week old C57BLl6J (Jackson Laboratory, Bar Harbor, Me.) mice were anesthetized with intraperitoneal injection of ketamine (100 mg/kg) and xylazine (5 mg/kg). After applying two drops of topical 0.5% proparacaine, a 2.0-mm area of the central epithelium was demarcated using 2-mm disposable biopsy punch and removed by an AlgerBrush II (The Alger Company, Lago Vista, Tex.). In the treatment (n=7) or the control (n=7) group, Histatin=5 (80 μM), SHRGY peptide (SEQ ID NO:2; 80 μM), or SP1 (80 μM) was applied to the cornea three times a day. At 0, 18 and 24 hours, the corneas were stained with fluorescein (FUL-GLO® Fluorescein Sodium ophthalmic strips, Akorn, Lake forest, Ill.) and photographed using a NIKON FS-2 photo-slit lamp with a NIKON D200 camera (Melville, N.Y.). Wound sizes were compared with the baseline for each mouse and the percentages of wound closure was measured using Image J software.
For immunofluorescence, excised whole mouse eye was snap frozen in optimal cutting temperature compound (OCT; (Fisher Healthcare, Galderma, Calif.). The frozen tissues were cut into 10 μm cryosections (ThermoScientific NX50 Cryomicrotome, Waltham, Mass.) and subsequently were mounted on Superfrost plus slides (Thermofisher, Waltham, Mass.). Slides were fixed for 20 minutes in methanol, washed several times with PBS, stained with DAPI for 2 minutes, and further washed with PBS and deionized water. The slides were then mounted in Fluoro gel with Tris buffer (Electron Microscopy Sciences, Hattfield, Pa.) and observed under a confocal microscope (Zeiss LSM 710 Confocal Microscope, Oberkochen, Germany) using a 10× objective.
Thus, Hst5 and SHRGY (SEQ ID NO:2)-containing peptides can enhance wound healing in a well-vetted model of murine corneal epithelial injury.

For “SHRGY-(CH2)6-SHRGY-(CH2)6-SHRGY-(CH2)6-SHRGY (SHRGY[(CH2)6]SHRGY[(CH2)6]SHRGY[(CH2)6]SHRGY) [multimer of SHRGY composed of 4 repeating units]”, which corneal healing is on record?
Its corneal healing is “significantly improve corneal healing”.

System: p-ERK1/2
Test: Immunofluorescence imaging of p-ERK1/2 in scratched HCE monolayer
Assay type: cell-based, Human
Conditions: 80 μM, 45 minutes
Procedure: Immunofluorescence Imaging. HCE cells were seeded in 8-well chamber slide at 9×10^4 (cells/well) seeding density, and allowed to incubate to form a confluent monolayer. Subsequently, a straight-line scratch mark was made with a sterile P10 pipette tip. The cells were then washed with media to remove cellular debris. Wounded areas were subsequently left untreated or treated with Hst5, SP1 or SP2 at 80 μM concentrations in MEM media with 0.5% FBS for 45 minutes. Cells were then fixed with 4% paraformaldehyde for 30 minutes and permeabilized with 0.1% Triton X-100 for 5 minutes. After washing with PBS, cells were incubated at room temperature for 30 minutes with 5% bovine serum albumin (BSA) and 5% normal goat serum in PBS. Cells were subsequently incubated with primary antibodies diluted in 1% BSA against p-ERK1/2 (1:200) (Cell Signaling, Danver, Mass.) at 4° C. for 16 hours. After three washings with PBS, cells were incubated with fluorescein isothiocyanate-conjugated sheep anti-rabbit IgG antibody (BD Biosciences, San Jose, Calif.) (1:500) diluted in 1% BSA at room temperature for 60 minutes. After extensive washing with PBS, the cells were then stained with 4′,6-diamidino-2-phenylindole (DAPI; (Roche, Mannheim, GE) for 2 minutes for nuclear staining. The cells were mounted in Fluoro gel with Tris buffer (Electron Microscopy Sciences, Hattfield, Pa.) and observed under a confocal microscope (Zeiss LSM 710 Confocal Microscope, Oberkochen, Germany) using a 10× objective.
The level of activation/phosphorylation of ERK with and without wounding and with and without Hst5 application were investigated to determine whether the cellular signaling pathways underpinning the pro-migratory effects of Hst5 were similar to those of Hst1 in other epithelial cell types. Wounding causes an increased in phosphorylated form of ERK1/2 (p-ERK1/2). Immunolocalization was used to determine whether Hst5 application to a scratched sheet of epithelium would affect pERK1/2 levels.

Which “pERK1/2 immunolocalization / signal intensity” value does the source give for HSHKEGHHYKRFKRKHHADSHRGY [SP2] here?
The value was “increased pERK1/2 levels to a comparable intensity to Hst5; also recorded: elevated immunolocalization of pERK1/2”.

With YHGHRHFRKHKKHKEAHSYDRGSH [SP1] as the molecule, how does the “pERK1/2 immunolocalization / signal intensity” value read?
Its value is “did not elicit the same increase in pERK1/2 immunolocalization”.

Source: patent publication US20230027620A1, “PENTAPEPTIDE AND METHODS OF USE THEREOF” (THE BOARD OF TRUSTEES OF THE UNIVERSITY OF ILLINOIS, priority 2019, published 2023)
